In patent publication US10385019B2, “Inhibitors of EGFR and methods of use thereof” (Dana-Farber Cancer Institute, Inc., priority 2015, dated 2019):

Biological target: EGFR T790M/L858R Ba/F3 cell line (Homo sapiens, UniProt P00533, T790M/L858R, cells depend on it)
Experiment: Ba/F3 cell proliferation model
Assay type: cell-based, murine
Conditions: combined with cetuximab (% cetuximab, 1.0 μM drug concentration with 1.0 μg/mL cetuximab)
Summary of the method: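 Murine Ba/F3 cells made IL-3-independent by retroviral EGFR L858R/T790M, selected in puromycin (2 μg/ml) and kept in RPMI 1640 with 10% FBS. Cells were exposed to serially diluted compound for 72 h, with growth read by MTS assay in six wells per point and ≥3 repeats. Sigmoidal dose-response non-linear regression gave the values.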

Sequence of EGFR T790M/L858R Ba/F3 cell line (P00533 whole entry T790M/L858R): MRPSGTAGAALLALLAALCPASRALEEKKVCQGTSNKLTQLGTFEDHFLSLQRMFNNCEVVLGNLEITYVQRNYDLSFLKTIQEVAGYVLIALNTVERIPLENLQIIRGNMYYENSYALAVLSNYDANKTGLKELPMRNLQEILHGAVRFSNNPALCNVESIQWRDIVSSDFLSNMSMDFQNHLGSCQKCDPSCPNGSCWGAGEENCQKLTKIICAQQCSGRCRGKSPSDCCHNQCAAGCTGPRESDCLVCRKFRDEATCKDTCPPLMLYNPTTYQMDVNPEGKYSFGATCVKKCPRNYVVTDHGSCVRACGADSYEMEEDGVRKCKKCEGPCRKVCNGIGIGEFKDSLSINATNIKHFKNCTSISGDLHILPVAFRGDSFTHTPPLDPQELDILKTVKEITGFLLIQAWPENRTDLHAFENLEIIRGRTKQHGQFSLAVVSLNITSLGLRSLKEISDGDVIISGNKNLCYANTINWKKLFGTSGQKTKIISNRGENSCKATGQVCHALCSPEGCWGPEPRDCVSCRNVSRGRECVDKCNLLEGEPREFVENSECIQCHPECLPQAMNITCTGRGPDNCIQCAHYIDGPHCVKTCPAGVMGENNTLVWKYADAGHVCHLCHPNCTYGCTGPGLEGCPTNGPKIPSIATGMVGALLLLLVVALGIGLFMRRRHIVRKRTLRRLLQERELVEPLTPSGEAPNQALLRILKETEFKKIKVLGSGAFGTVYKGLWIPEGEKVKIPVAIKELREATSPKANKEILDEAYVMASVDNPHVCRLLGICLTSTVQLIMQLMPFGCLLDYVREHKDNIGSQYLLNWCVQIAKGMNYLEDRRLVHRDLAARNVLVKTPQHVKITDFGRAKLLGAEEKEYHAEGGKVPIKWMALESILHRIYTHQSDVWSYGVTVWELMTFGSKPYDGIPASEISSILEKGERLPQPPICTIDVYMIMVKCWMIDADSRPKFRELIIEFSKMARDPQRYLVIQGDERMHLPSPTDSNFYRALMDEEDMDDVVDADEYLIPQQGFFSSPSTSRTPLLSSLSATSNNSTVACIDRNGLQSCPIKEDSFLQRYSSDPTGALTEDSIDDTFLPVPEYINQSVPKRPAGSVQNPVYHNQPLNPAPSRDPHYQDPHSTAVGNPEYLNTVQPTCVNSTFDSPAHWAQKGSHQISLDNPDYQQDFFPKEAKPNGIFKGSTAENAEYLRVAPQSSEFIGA

| Compound | Activity (% inhibition) |
| --- | --- |
| C[C@H](C(=O)Nc1nccs1)N1Cc2ccc(-c3ccc(N4CCNCC4)cc3)cc2C1=O [Compound I-118, (R)-2-(1-oxo-6-(4-(piperazin-1-yl)phenyl)isoindolin-2-yl)-N-(thiazol-2-yl)propanamide] | A (a % inhibition of about 75%) |
| O=C(Nc1nccs1)C(c1ccccn1)N1Cc2ccc(-c3ccc4[nH]ccc4c3)cc2C1=O (stereo not drawn) [Compound I-123, 2-(6-(1H-indol-5-yl)-1-oxoisoindolin-2-yl)-2-(pyridin-2-yl)-N-(thiazol-2-yl)acetamide] | D (a % inhibition of between about 0% to about 25%) |
| O=C(Nc1nccs1)C(c1ccccn1)N1Cc2ccc(-c3ccc(N4CCNCC4)cc3)cc2C1=O (stereo not drawn) [Compound I-124, 2-(1-oxo-6-(4-(piperazin-1-yl)phenyl)isoindolin-2-yl)-2-(pyridin-2-yl)-N-(thiazol-2-yl)acetamide] | D (a % inhibition of between about 0% to about 25%) |
| O=C(Nc1nccs1)C(c1cccc(F)c1)N1Cc2ccc(-c3ccc(CN4CCNCC4)cc3)cc2C1=O (stereo not drawn) [Compound I-125, 2-(3-fluorophenyl)-2-(1-oxo-6-(4-(piperazin-1-ylmethyl)phenyl)isoindolin-2-yl)-N-(thiazol-2-yl)acetamide] | D (a % inhibition of between about 0% to about 25%) |
| O=C(Nc1nccs1)[C@@H](c1cc(F)ccc1O)N1Cc2ccc(-c3ccc(N4CCNCC4)cc3)cc2C1=O [Compound I-126, (R)-2-(5-fluoro-2-hydroxyphenyl)-2-(1-oxo-6-(4-(piperazin-1-yl)phenyl)isoindolin-2-yl)-N-(thiazol-2-yl)acetamide] | D (a % inhibition of between about 0% to about 25%) |
| O=C(Nc1nncs1)[C@@H](c1ccccc1)N1Cc2ccc(-c3ccc4[nH]ccc4c3)cc2C1=O [Compound I-127, (R)-2-(6-(1H-indol-5-yl)-1-oxoisoindolin-2-yl)-2-phenyl-N-(1,3,4-thiadiazol-2-yl)acetamide] | A (a % inhibition of about 75%) |
| O=C(Nc1cnsc1)[C@@H](c1ccccc1)N1Cc2ccc(-c3ccc4[nH]ccc4c3)cc2C1=O [Compound I-128, (R)-2-(6-(1H-indol-5-yl)-1-oxoisoindolin-2-yl)-N-(isothiazol-4-yl)-2-phenylacetamide] | A (a % inhibition of about 75%) |
| O=C(Nc1ncco1)[C@@H](c1ccccc1)N1Cc2ccc(-c3ccc4[nH]ccc4c3)cc2C1=O [Compound I-129, (R)-2-(6-(1H-indol-5-yl)-1-oxoisoindolin-2-yl)-N-(oxazol-2-yl)-2-phenylacetamide] | B (a % inhibition of between about 50% to about 75%) |
| O=C(Nc1cnoc1)[C@@H](c1ccccc1)N1Cc2ccc(-c3ccc4[nH]ccc4c3)cc2C1=O [Compound I-130, (R)-2-(6-(1H-indol-5-yl)-1-oxoisoindolin-2-yl)-N-(isoxazol-4-yl)-2-phenylacetamide] | C (a % inhibition of between about 25% to about 50%) |
| Cc1csc(NC(=O)[C@@H](c2ccccc2)N2Cc3ccc(-c4ccc5[nH]ccc5c4)cc3C2=O)n1 [Compound I-131, (R)-2-(6-(1H-indol-5-yl)-1-oxoisoindolin-2-yl)-N-(4-methylthiazol-2-yl)-2-phenylacetamide] | A (a % inhibition of about 75%) |
| O=C(Nc1nc(C(F)(F)F)cs1)[C@@H](c1ccccc1)N1Cc2ccc(-c3ccc4[nH]ccc4c3)cc2C1=O [Compound I-132, (R)-2-(6-(1H-indol-5-yl)-1-oxoisoindolin-2-yl)-2-phenyl-N-(4-(trifluoromethyl)thiazol-2-yl)acetamide] | A (a % inhibition of about 75%) |
| O=C(Nc1ncc[nH]1)[C@@H](c1ccccc1)N1Cc2ccc(-c3ccc4[nH]ccc4c3)cc2C1=O [Compound I-133, (R)-2-(6-(1H-indol-5-yl)-1-oxoisoindolin-2-yl)-N-(1H-imidazol-2-yl)-2-phenylacetamide] | D (a % inhibition of between about 0% to about 25%) |
| O=C(Nc1cncnc1)[C@@H](c1ccccc1)N1Cc2ccc(-c3ccc4[nH]ccc4c3)cc2C1=O [Compound I-134, (R)-2-(6-(1H-indol-5-yl)-1-oxoisoindolin-2-yl)-2-phenyl-N-(pyrimidin-5-yl)acetamide] | A (a % inhibition of about 75%) |

Same assay, conditions: compound alone; read-out: L858R/T790M IC50

| Compound | GI50 |
| --- | --- |
| O=C(Nc1nccs1)[C@@H](c1cc(F)ccc1O)N1Cc2ccc(-c3ccc(N4CCNCC4)cc3)cc2C1=O [Compound I-126, (R)-2-(5-fluoro-2-hydroxyphenyl)-2-(1-oxo-6-(4-(piperazin-1-yl)phenyl)isoindolin-2-yl)-N-(thiazol-2-yl)acetamide] | 500 to 1000 nM |

Same assay, conditions: read-out: L858R/T790M Cetuximab IC50; in combination with Cetuximab

| Compound | GI50 |
| --- | --- |
| O=C(Nc1nccs1)[C@@H](c1cc(F)ccc1O)N1Cc2ccc(-c3ccc(N4CCNCC4)cc3)cc2C1=O [Compound I-126, (R)-2-(5-fluoro-2-hydroxyphenyl)-2-(1-oxo-6-(4-(piperazin-1-yl)phenyl)isoindolin-2-yl)-N-(thiazol-2-yl)acetamide] | < 500 nM |
